Source: PubChem BioAssay AID2060612 (Molecular Pharmacology Branch, DTP, NCI, 2025)
Each block holds one compound with its values, some of them ahead of it.

System: 565232-114-T-J1-PDC complex spheroid viability
Assay: Anticancer human tumor 565232-114-T-J1-PDC patient-derived bladder carcinoma cell line growth inhibition [CLK]
Details: for IC50: curve of first compound; for viability, T/C: stronger effect = lower value
How it was run: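 Multi-cell-type spheroids combined patient-derived tumor cells with HUVEC endothelial cells and human mesenchymal stem cells. Paired agents were dosed in half-log steps down from about clinical Cmax, or from 10 microM where Cmax was unknown.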

[1] = second compound 0.0316 µM, first compound 0.0316 µM
[2] = second compound 0.0316 µM, first compound 0.1 µM
[3] = second compound 0.0316 µM, first compound 0.316 µM
[4] = second compound 0.0316 µM, first compound 1 µM
[5] = second compound 0.1 µM, first compound 0.0316 µM
[6] = second compound 0.1 µM, first compound 0.1 µM
[7] = second compound 0.1 µM, first compound 0.316 µM
[8] = second compound 0.1 µM, first compound 1 µM
[9] = second compound 0.316 µM, first compound 0.0316 µM
[10] = second compound 0.316 µM, first compound 0.1 µM
[11] = second compound 0.316 µM, first compound 0.316 µM
[12] = second compound 0.316 µM, first compound 1 µM
[13] = second compound 1 µM, first compound 0.0316 µM
[14] = second compound 1 µM, first compound 0.1 µM
[15] = second compound 1 µM, first compound 0.316 µM
[16] = second compound 1 µM, first compound 1 µM
[17] = second compound 3.16 µM, first compound 0.0316 µM
[18] = second compound 3.16 µM, first compound 0.1 µM
[19] = second compound 3.16 µM, first compound 0.316 µM
[20] = second compound 3.16 µM, first compound 1 µM
[21] = second compound 10 µM, first compound 0.0316 µM
[22] = second compound 10 µM, first compound 0.1 µM
[23] = second compound 10 µM, first compound 0.316 µM
[24] = second compound 10 µM, first compound 1 µM
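Further: spheroids exposed to compounds for 7 days before readout.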
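Wherever viability, T/C is given: 100% = DMSO vehicle wells with luminescence normalized to vehicle control.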

Compound: NC(=O)C(=Cn1cnc(-c2cc(C(F)(F)F)cc(C(F)(F)F)c2)n1)c1cncnc1 + CN1CCN(c2cc(C(=O)Nc3cc4cc(-c5cnn(C)c5)ccc4cn3)ccn2)CC1
IC50 (second compound 0.0316 µM): 384 nM
IC50 (second compound 0.1 µM): 190 nM
IC50 (second compound 0.316 µM): < 9.49 nM
IC50 (second compound 1 µM): < 9.49 nM
IC50 (second compound 3.16 µM): < 9.49 nM
IC50 (second compound 10 µM): < 9.49 nM
viability, T/C (second compound 0.0316 µM, first compound 0.00949 µM): 110%
viability, T/C (second compound 0.0316 µM, first compound 0.03 µM): 79.4%
viability, T/C (second compound 0.0316 µM, first compound 0.0949 µM): 116%
viability, T/C (second compound 0.0316 µM, first compound 0.3 µM): 63%
viability, T/C (second compound 0.0316 µM, first compound 0.949 µM): 2.12%
viability, T/C (second compound 0.0316 µM, first compound 3 µM): 2.86%
viability, T/C (second compound 0.1 µM, first compound 0.00949 µM): 112%
viability, T/C (second compound 0.1 µM, first compound 0.03 µM): 89.6%
viability, T/C (second compound 0.1 µM, first compound 0.0949 µM): 69.7%
viability, T/C (second compound 0.1 µM, first compound 0.3 µM): 44.2%
viability, T/C (second compound 0.1 µM, first compound 0.949 µM): 1.42%
viability, T/C (second compound 0.1 µM, first compound 3 µM): 0.17%
viability, T/C (second compound 0.316 µM, first compound 0.00949 µM): 11.2%
viability, T/C (second compound 0.316 µM, first compound 0.03 µM): 19.1%
viability, T/C (second compound 0.316 µM, first compound 0.0949 µM): 4.82%
viability, T/C (second compound 0.316 µM, first compound 0.3 µM): 0.31%
viability, T/C (second compound 0.316 µM, first compound 0.949 µM): 0.21%
viability, T/C (second compound 0.316 µM, first compound 3 µM): 0.15%
viability, T/C (second compound 1 µM, first compound 0.00949 µM): 0.13%
viability, T/C (second compound 1 µM, first compound 0.03 µM): 1.42%
viability, T/C (second compound 1 µM, first compound 0.0949 µM): 0.31%
viability, T/C (second compound 1 µM, first compound 0.3 µM): 0.24%
viability, T/C (second compound 1 µM, first compound 0.949 µM): 0.19%
viability, T/C (second compound 1 µM, first compound 3 µM): 0.08%
viability, T/C (second compound 3.16 µM, first compound 0.00949 µM): 0.19%
viability, T/C (second compound 3.16 µM, first compound 0.03 µM): 0.22%
viability, T/C (second compound 3.16 µM, first compound 0.0949 µM): 3.11%
viability, T/C (second compound 3.16 µM, first compound 0.3 µM): 0.24%
viability, T/C (second compound 3.16 µM, first compound 0.949 µM): 1.65%
viability, T/C (second compound 3.16 µM, first compound 3 µM): 0.16%
viability, T/C (second compound 10 µM, first compound 0.00949 µM): 0.14%
viability, T/C (second compound 10 µM, first compound 0.03 µM): 0.12%
viability, T/C (second compound 10 µM, first compound 0.0949 µM): 1.13%
viability, T/C (second compound 10 µM, first compound 0.3 µM): 0.76%
viability, T/C (second compound 10 µM, first compound 0.949 µM): 0.21%
viability, T/C (second compound 10 µM, first compound 3 µM): 0.37%

IC50 (second compound 0.0316 µM): 2980 nM
IC50 (second compound 0.1 µM): 44.4 nM
IC50 (second compound 0.316 µM): < 31.6 nM
IC50 (second compound 1 µM): < 31.6 nM
IC50 (second compound 3.16 µM): < 31.6 nM
IC50 (second compound 10 µM): < 31.6 nM
Compound: Nc1ccccc1NC(=O)c1ccc(CNC(=O)OCc2cccnc2)cc1 + CNC(=O)c1ccc(Nc2nc(OC3CCCC3)c3c(-c4ccc5nc(C)oc5c4)c[nH]c3n2)c(OC)c1
viability, T/C [1]: 82%
viability, T/C [2]: 109%
viability, T/C [3]: 109%
viability, T/C [4]: 87.8%
viability, T/C (second compound 0.0316 µM, first compound 3.16 µM): 48.3%
viability, T/C (second compound 0.0316 µM, first compound 10 µM): 0.6%
viability, T/C [5]: 51%
viability, T/C [6]: 47.9%
viability, T/C [7]: 35%
viability, T/C [8]: 24.9%
viability, T/C (second compound 0.1 µM, first compound 3.16 µM): 15.6%
viability, T/C (second compound 0.1 µM, first compound 10 µM): 0.18%
viability, T/C [9]: 33.1%
viability, T/C [10]: 27.7%
viability, T/C [11]: 16.4%
viability, T/C [12]: 11.1%
viability, T/C (second compound 0.316 µM, first compound 3.16 µM): 5.55%
viability, T/C (second compound 0.316 µM, first compound 10 µM): 0.32%
viability, T/C [13]: 23.7%
viability, T/C [14]: 18.4%
viability, T/C [15]: 14.7%
viability, T/C [16]: 8.67%
viability, T/C (second compound 1 µM, first compound 3.16 µM): 8.05%
viability, T/C (second compound 1 µM, first compound 10 µM): 0.14%
viability, T/C [17]: 17.5%
viability, T/C [18]: 16.4%
viability, T/C [19]: 10.7%
viability, T/C [20]: 6.76%
viability, T/C (second compound 3.16 µM, first compound 3.16 µM): 6.55%
viability, T/C (second compound 3.16 µM, first compound 10 µM): 0.19%
viability, T/C [21]: 17.6%
viability, T/C [22]: 14.9%
viability, T/C [23]: 8.73%
viability, T/C [24]: 6.93%
viability, T/C (second compound 10 µM, first compound 3.16 µM): 6.45%
viability, T/C (second compound 10 µM, first compound 10 µM): 0.27%

IC50 (second compound 0.0316 µM): > 1000 nM
IC50 (second compound 0.1 µM): < 3.16 nM
IC50 (second compound 0.316 µM): < 3.16 nM
IC50 (second compound 1 µM): < 3.16 nM
IC50 (second compound 3.16 µM): < 3.16 nM
IC50 (second compound 10 µM): < 3.16 nM
Compound: COc1c(OCCCN2CCOCC2)ccc2c3n(c(=NC(=O)c4cnc(N)nc4)nc12)CCN3 + CNC(=O)c1ccc(Nc2nc(OC3CCCC3)c3c(-c4ccc5nc(C)oc5c4)c[nH]c3n2)c(OC)c1
viability, T/C (second compound 0.0316 µM, first compound 0.00316 µM): 106%
viability, T/C (second compound 0.0316 µM, first compound 0.01 µM): 81.5%
viability, T/C [1]: 84.9%
viability, T/C [2]: 94.5%
viability, T/C [3]: 118%
viability, T/C [4]: 68.7%
viability, T/C (second compound 0.1 µM, first compound 0.00316 µM): 39.5%
viability, T/C (second compound 0.1 µM, first compound 0.01 µM): 38.5%
viability, T/C [5]: 29.8%
viability, T/C [6]: 31.7%
viability, T/C [7]: 22.6%
viability, T/C [8]: 20.8%
viability, T/C (second compound 0.316 µM, first compound 0.00316 µM): 26.9%
viability, T/C (second compound 0.316 µM, first compound 0.01 µM): 24.1%
viability, T/C [9]: 22.4%
viability, T/C [10]: 18.9%
viability, T/C [11]: 15.8%
viability, T/C [12]: 9.27%
viability, T/C (second compound 1 µM, first compound 0.00316 µM): 15.4%
viability, T/C (second compound 1 µM, first compound 0.01 µM): 16.9%
viability, T/C [13]: 14.5%
viability, T/C [14]: 8.97%
viability, T/C [15]: 5.69%
viability, T/C [16]: 3.61%
viability, T/C (second compound 3.16 µM, first compound 0.00316 µM): 15.6%
viability, T/C (second compound 3.16 µM, first compound 0.01 µM): 9.18%
viability, T/C [17]: 8.92%
viability, T/C [18]: 4.99%
viability, T/C [19]: 5.15%
viability, T/C [20]: 1.71%
viability, T/C (second compound 10 µM, first compound 0.00316 µM): 12.3%
viability, T/C (second compound 10 µM, first compound 0.01 µM): 10.3%
viability, T/C [21]: 5.74%
viability, T/C [22]: 5.45%
viability, T/C [23]: 3.3%
viability, T/C [24]: 1.73%
